ChEMBL document CHEMBL5465560, “Selectivity Literature for EUbOPEN Chemogenomic Library” (2024)

Columns and labels:
[1] = molecular target: Tyrosine-protein kinase JAK2 (Homo sapiens, UniProt O60674); assay: Selectivity interaction (KinomeScan (DiscoverX)) EUB0001079a JAK2; details: at 1 µM
[2] = molecular target: Serine/threonine-protein kinase PLK3 (Homo sapiens, UniProt Q9H4B4); assay: Selectivity interaction (Kinase panel (Invitrogen)) EUB0000639a PLK3; details: at 200 nM
[3] = molecular target: T1, SNF-related serine/threonine-protein kinase (Homo sapiens) (UniProt Q9NRH2); assay: Selectivity interaction (ActivX KiNativ screen (kinase selectivity in THP-1 cell lysates)) EUB0000639a SNRK; type: subcellular; details: lysate, at 5 µM
T1 sequence (whole entry): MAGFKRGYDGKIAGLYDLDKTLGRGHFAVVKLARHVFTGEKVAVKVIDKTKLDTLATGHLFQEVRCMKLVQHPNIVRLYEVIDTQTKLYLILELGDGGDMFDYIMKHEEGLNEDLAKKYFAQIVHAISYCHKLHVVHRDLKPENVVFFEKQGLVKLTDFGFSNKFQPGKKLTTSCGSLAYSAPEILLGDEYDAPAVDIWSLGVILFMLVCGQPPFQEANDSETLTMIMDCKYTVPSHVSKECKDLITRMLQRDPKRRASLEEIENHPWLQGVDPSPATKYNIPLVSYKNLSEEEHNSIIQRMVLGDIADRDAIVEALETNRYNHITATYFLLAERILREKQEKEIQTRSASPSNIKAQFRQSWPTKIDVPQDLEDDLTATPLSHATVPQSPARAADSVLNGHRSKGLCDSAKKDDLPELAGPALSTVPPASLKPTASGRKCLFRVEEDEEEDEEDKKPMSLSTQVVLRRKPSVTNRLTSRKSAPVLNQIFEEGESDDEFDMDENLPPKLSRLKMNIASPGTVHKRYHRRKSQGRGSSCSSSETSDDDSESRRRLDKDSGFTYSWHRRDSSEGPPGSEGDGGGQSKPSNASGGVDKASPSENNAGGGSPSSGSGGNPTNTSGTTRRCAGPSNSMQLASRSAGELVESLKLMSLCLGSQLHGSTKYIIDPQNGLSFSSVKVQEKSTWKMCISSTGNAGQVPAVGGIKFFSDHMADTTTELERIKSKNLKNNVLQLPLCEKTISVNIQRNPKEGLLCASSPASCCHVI

[4] = molecular target: T2, Phosphorylase b kinase gamma catalytic chain, liver/testis isoform (Homo sapiens) (UniProt P15735); assay: Selectivity interaction (Ambit KINOMEscan and KiNATiv profiling in Jurkat cells) EUB0000090b PHKG2; type: cell-based; details: at 1 µM
T2 sequence (whole entry): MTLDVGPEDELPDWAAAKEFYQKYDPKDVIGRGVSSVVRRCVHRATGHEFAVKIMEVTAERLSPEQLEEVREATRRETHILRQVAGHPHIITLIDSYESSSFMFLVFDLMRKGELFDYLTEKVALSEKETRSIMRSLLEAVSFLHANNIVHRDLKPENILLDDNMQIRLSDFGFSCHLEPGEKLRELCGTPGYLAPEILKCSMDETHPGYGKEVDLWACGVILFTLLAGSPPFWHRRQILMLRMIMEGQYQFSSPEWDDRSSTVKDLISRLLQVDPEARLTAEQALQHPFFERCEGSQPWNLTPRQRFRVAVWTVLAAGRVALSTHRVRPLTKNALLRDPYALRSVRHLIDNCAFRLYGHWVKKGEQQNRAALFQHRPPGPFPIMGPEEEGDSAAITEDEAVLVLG

[5] = molecular target: Tyrosine-protein kinase Fer (Homo sapiens) (UniProt P16591); assay: Selectivity interaction (KinomeScan (DiscoverX)) EUB0000045b FER
Tyrosine-protein kinase Fer (Homo sapiens), sequence (P16591 whole entry, looked up): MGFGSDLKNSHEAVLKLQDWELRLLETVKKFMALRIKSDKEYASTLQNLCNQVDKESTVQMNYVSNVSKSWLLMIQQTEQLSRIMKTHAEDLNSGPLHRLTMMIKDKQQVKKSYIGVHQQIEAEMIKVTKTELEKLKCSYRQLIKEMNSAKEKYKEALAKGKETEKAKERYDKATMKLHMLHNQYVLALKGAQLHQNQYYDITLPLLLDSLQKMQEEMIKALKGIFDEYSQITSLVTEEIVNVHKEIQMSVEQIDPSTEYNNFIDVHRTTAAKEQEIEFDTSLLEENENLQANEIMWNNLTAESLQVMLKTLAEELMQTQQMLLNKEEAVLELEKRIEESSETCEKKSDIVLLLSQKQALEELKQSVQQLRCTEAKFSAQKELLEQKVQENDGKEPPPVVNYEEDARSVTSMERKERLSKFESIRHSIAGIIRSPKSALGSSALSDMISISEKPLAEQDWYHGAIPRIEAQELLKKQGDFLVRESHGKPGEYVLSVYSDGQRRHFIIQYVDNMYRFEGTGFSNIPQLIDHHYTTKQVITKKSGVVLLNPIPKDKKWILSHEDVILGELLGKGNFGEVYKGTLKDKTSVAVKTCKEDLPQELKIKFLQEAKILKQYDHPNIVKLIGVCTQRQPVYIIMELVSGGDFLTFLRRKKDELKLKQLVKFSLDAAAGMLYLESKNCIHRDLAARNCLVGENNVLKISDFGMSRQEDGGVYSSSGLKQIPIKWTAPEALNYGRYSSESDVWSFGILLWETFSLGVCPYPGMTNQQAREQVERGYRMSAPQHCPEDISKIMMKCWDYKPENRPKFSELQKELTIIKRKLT

[6] = molecular target: T3, Serine/threonine-protein kinase RIO1 (Homo sapiens) (UniProt Q9BRS2); assay: Selectivity interaction (KinomeScan (DiscoverX)) EUB0000045b RIOK1
T3 sequence (whole entry): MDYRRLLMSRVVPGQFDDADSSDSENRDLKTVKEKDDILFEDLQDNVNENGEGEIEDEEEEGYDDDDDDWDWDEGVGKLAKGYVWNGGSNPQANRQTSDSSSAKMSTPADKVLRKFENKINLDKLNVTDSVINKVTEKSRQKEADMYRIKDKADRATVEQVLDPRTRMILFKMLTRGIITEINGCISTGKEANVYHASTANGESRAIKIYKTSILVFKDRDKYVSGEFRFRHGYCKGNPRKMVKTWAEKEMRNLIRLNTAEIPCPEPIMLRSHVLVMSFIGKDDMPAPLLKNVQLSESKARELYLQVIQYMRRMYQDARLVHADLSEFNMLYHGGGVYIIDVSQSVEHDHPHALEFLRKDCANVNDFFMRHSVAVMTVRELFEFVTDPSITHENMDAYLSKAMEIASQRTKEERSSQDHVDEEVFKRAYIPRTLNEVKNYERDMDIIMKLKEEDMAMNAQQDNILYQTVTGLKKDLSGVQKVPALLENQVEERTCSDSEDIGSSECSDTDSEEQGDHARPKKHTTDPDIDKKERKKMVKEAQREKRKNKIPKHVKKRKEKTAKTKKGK

[7] = molecular target: Calcium/calmodulin-dependent protein kinase type 1G (Homo sapiens) (UniProt Q96NX5); assay: Selectivity interaction (KinomeScan (DiscoverX)) EUB0001619a CAMK1G; details: at 1 µM
Calcium/calmodulin-dependent protein kinase type 1G (Homo sapiens), sequence (Q96NX5 whole entry): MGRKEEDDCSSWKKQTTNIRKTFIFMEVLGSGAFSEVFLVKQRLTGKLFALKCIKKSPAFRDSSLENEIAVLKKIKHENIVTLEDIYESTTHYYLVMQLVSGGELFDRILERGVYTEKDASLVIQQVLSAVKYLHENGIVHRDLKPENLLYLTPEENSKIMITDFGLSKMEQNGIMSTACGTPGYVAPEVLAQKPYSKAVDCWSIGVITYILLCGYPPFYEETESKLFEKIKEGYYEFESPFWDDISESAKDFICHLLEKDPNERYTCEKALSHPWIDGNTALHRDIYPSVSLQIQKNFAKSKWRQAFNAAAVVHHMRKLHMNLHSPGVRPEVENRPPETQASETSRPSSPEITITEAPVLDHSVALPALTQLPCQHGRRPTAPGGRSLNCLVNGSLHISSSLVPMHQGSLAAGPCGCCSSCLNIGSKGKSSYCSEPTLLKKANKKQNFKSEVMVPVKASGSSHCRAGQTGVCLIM

[8] = molecular target: T4, cGMP-dependent protein kinase 1 (Homo sapiens) (UniProt Q13976); assay: Selectivity interaction (KinomeScan (DiscoverX)) EUB0000655a PRKG1; details: at 10 µM
T4 sequence (whole entry): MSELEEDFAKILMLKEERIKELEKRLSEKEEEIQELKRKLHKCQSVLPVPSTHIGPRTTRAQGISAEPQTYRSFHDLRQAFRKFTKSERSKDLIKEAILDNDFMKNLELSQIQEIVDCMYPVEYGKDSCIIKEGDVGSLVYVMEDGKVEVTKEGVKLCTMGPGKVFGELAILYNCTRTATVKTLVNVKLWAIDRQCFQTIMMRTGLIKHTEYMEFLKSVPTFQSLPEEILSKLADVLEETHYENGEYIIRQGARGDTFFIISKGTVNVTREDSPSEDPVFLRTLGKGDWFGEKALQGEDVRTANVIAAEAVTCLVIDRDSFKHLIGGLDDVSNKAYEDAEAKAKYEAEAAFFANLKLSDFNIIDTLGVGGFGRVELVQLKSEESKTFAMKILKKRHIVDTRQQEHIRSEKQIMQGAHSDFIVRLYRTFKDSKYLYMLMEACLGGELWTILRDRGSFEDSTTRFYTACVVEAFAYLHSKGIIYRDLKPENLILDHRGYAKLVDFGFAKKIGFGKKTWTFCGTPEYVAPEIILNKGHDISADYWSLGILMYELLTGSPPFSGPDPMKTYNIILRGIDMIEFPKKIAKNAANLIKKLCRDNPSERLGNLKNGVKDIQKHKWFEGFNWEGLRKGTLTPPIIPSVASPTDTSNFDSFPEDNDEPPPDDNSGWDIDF

[9] = molecular target: Interleukin-1 receptor-associated kinase 1 (Homo sapiens) (UniProt P51617); assay: Selectivity interaction (KinomeScan (DiscoverX)) EUB0000607a IRAK1; details: at 10 µM
Interleukin-1 receptor-associated kinase 1 (Homo sapiens), sequence (P51617 whole entry, looked up): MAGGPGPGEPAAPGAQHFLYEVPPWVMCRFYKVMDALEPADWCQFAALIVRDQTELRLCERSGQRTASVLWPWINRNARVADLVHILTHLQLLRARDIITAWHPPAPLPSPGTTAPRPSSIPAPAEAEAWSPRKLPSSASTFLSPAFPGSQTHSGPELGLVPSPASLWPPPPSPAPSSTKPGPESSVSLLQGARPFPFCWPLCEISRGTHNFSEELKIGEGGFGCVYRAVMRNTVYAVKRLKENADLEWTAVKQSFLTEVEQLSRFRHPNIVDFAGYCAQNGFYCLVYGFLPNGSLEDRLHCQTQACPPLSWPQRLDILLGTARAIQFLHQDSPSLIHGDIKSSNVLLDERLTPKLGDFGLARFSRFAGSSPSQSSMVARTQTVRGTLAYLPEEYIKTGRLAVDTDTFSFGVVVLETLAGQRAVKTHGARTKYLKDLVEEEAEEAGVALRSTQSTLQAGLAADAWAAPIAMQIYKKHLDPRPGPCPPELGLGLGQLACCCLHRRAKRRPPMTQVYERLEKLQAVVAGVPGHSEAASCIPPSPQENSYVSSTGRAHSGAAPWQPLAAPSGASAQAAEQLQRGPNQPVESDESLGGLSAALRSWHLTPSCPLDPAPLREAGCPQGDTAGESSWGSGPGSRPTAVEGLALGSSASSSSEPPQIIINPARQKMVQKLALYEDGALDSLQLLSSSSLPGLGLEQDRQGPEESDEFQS

Tyrosine-protein kinase JAK2, sequence (O60674 whole entry): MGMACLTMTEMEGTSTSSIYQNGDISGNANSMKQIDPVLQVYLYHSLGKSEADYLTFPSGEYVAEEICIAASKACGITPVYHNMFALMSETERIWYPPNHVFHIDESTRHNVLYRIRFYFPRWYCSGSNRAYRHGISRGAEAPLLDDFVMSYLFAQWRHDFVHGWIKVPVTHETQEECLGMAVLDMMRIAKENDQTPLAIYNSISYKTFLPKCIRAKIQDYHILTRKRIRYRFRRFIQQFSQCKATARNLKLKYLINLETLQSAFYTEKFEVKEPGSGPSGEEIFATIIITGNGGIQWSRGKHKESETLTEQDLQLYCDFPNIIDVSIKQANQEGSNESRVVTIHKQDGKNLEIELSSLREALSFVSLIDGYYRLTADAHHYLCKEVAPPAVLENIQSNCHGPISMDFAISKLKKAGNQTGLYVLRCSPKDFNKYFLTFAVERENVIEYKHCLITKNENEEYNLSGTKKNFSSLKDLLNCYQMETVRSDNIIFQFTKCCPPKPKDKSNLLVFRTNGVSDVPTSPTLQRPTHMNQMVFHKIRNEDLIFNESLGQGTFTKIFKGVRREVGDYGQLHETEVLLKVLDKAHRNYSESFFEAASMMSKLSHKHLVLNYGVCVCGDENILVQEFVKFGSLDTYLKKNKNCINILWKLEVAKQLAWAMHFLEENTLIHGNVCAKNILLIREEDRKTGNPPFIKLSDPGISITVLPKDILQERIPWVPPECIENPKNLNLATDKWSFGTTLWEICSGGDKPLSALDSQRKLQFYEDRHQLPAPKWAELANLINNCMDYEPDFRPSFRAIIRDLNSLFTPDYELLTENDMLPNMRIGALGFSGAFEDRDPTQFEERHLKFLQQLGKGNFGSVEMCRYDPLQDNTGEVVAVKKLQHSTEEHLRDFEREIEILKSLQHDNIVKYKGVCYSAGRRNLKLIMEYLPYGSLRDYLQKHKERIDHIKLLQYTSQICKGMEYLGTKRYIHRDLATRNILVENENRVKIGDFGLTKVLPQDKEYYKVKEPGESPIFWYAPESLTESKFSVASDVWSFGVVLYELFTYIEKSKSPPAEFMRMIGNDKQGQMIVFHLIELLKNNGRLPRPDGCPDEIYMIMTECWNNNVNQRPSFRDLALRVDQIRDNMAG
Serine/threonine-protein kinase PLK3, sequence (Q9H4B4 whole entry, looked up): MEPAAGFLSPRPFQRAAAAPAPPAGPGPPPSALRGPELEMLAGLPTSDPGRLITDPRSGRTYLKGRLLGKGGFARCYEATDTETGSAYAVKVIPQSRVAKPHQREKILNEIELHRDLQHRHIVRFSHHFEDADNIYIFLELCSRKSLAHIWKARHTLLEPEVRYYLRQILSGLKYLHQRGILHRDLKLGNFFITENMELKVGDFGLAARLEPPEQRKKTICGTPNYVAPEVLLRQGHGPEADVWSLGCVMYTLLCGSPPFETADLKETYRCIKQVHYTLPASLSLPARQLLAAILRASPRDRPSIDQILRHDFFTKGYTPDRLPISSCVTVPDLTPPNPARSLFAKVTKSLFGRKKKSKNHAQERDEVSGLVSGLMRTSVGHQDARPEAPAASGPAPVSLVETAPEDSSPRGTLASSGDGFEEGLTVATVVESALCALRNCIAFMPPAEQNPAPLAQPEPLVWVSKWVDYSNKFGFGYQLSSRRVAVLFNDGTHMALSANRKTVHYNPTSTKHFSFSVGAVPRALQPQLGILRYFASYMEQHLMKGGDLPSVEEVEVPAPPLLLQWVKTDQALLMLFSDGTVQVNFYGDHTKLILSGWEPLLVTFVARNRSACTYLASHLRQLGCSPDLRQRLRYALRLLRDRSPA

Work on `Nc1cnc(N2CCc3cc(S(=O)(=O)Nc4c(F)cc(Cl)cc4F)cc(N4CCCC4=O)c32)nc1` [TP-020n] yielded a % of control [1] of 100%.
Compound `CC[C@@H]1[C@H](F)C(=O)N[C@@H]1COc1nccc2cc(C(N)=O)c(OC)cc12` [ZIMLOVISERTIB] has a % of inhibition [2] of 5.09% and a % of inhibition [3] of 16.9%.
`CN(C)C/C=C/C(=O)Nc1ccc(C(=O)N2CCCC(Nc3ncc(Cl)c(-c4c[nH]c5ccccc45)n3)C2)cc1` (stereo unspecified) was tested, and the % of control [4] was 94%.
For `C=CC(=O)Nc1cc(-n2c(=O)ccc3cnc4ccc(-c5ccc(NS(C)(=O)=O)cc5)cc4c32)ccc1C`, the % of control ([5]; at 1 µM) was 66%, the % of control ([5]; at 10 µM) was 89% and the % of control ([6]; at 1 µM) was 20%. It also gave a % of control ([6]; at 10 µM) of 52%.
`N#Cc1cccc(-c2c[nH]c3ncnc(N4CCOCC4)c23)c1` gave a % of control [7] of 100%.
`CN(C)CCOc1ccc(-c2nc(-c3ccncc3)c(-c3ccc4c(c3)CC/C4=N\O)[nH]2)cc1` gave a % of control [8] of 89%.
`CNC(=O)Nc1ccc(-c2nc(N3CC4CCC(C3)O4)c3cnn(C4CCC5(CC4)OCCO5)c3n2)cc1` showed a % of control [9] of 100%.
